# Test results reported in patent US12653776B2, “Methods of treatment of cancer by continuous infusion of coenzyme Q10” (priority 2013, dated 2026).
# Like-named read-outs stand apart in the source and are kept apart here.
# Key:
# [1] = test system: acute erythro-leukemia (K562) cells; assay: Acute erythroleukemia (K562) mouse model, survival; assay type: in vivo, mice
# Procedure: Human acute erythro-leukemia (K562) and acute myeloid leukemia (KG1) cells (1×10^6) were injected intraperitoneally in immune-compromised mice. Engraftment was confirmed by complete blood counts, presence of anemia, and clinical assessment of animal behavior.
# The mice (total n=120 for each model respectively) were randomized into four (n=30/group) treatment groups. Each treatment regimen was administered in a four week cycle with three weeks of treatment, one week off: • 1. Untreated (control) • 2. Coenzyme Q10 (4%, administered at 75 mg/kg, once/day by continuous infusion) • 3. Chemotherapy (cytarabine/AraC 25 mg/kg, 5×/week; and adriamycin/daunorubicin 5 mg/kg; 1×/wk) • 4. Coenzyme Q10 (4%, administered at 75 mg/kg, once/day by continuous infusion)+chemotherapy (cytarabine/AraC 25 mg/kg, 5×/week; and adriamycin/daunorubicin 5 mg/kg; 1×/wk)
# All dosings were intravenous and followed a protocol of 3 week treatment followed by 1 week rest. Leukemia was monitored by pallor and blood smears, and hone marrow smears were performed post-mortem for analysis using Wright's stain. Survival results from the study of mice with acute erythroleukemia are show in FIG. 5. Day 1 is the first day of treatment with coenzyme Q10 and/or chemotherapy.
# [2] = in vivo
# Procedure: The first-in-human Phase 1 study with coenzyme Q10 nanosuspension (40 mg/ml) was conducted in 50 patients with advanced solid tumors. The objectives were to assess the safety, maximum tolerated dose, PK and PD of coenzyme Q10, specifically a 4% coenzyme Q10 nanosuspension formulation (as described in WO 2011/112900, the entire contents of which are expressly incorporated herein by reference), administered as a 4-hour IV infusion 3 times weekly in 28-day cycles. […] Plasma concentration profiles and PK parameters were determined from blood samples collected pre-dose and at intervals to 48 hours post-dose.
# [3] = Procedure: In the Phase 1a portion of the trial, patients who meet eligibility parameters receive 2 consecutive 48-hour infusions of coenzyme Q10 twice weekly on Monday and Wednesday (i.e., Days 1, 3, 8, 10, 15, 17, 22, and 24), essentially receiving coenzyme Q10 treatment for 96 hours per week of each 28-day cycle. At each dose level of Arm 1 and Arm 2, patients are treated for either 8 hours at minimum of outpatient monitoring or inpatient monitoring for the first 24-hrs of the first infusion of Cycle 1. All other treatments are administered in an outpatient setting. Dose limiting toxicities are assessed during Cycle 1.
# The study is a standard 3+3 dose escalation design with the dose escalated in successive cohorts of 3 to 6 patients each. Toxicity at each dose level is graded according to National Cancer Institute Common Terminology Criteria for Adverse Events (CTCAE v4.02). Safety oversight is provided by the Cohort Review Committee (CRC). The CRC reviews and confirms all DLTs and monitor safety throughout the study (including Arm 2).
# The 2 doses are administered over 4 consecutive days, i.e., the first dose on Monday-Wednesday and the second dose on Wednesday-Friday of each week. The study drug is administered undiluted via a central venous access device and the infusion rate is controlled by a programmable ambulatory infusion pump such as the CADD Prizm VIP (model 6101) ambulatory pump.
# At each dose level of Arm 1 and Arm 2, patients are treated for either 8 hours at minimum of outpatient monitoring or inpatient monitoring for the first 24-hrs of the first infusion of Cycle 1. Patients are monitored for dose-limiting toxicity (DLT) or an AE that requires prolonged hospitalization. If no reaction to coenzyme Q10 develops, the patient will be discharged.
# For the second dose of each week (i.e., on Days 3, 10, 17, and 24 of the cycle) the total dose volume are given over 48 hours with no loading dose as indicated in Table 6 below. Coenzyme Q10 Nanosuspension for Injection Dose Cohorts (Arm 1; Monotherapy).
# [4] = Phase 1a/b study, 96-hour continuous IV infusion: pharmacokinetics; assay type: in vivo, human
# Procedure: Blood samples for pharmacokinetic and pharmacodynamic analyses are collected during each cycle of monotherapy and combination therapy. Urine samples for determination of coenzyme Q10 renal clearance are collected only during Cycle 1 of monotherapy and combination therapy. A PET scan is performed within 2 weeks prior to starting treatment and after 2 weeks of coenzyme Q10 treatment, and 8 weeks of treatment on Arm 1 or 10 weeks of treatment on Arm 2. Core biopsies (2-3) are performed at the time of baseline and Week 2 PET scan for patients who opt-in to participate in these exploratory studies.
# AML or ALL = assay: Phase 1a/b study, 18 day continuous infusion in relapsed/refractory AML or ALL; conditions: at the end of the study
# Procedure: This study is conducted in the inpatient setting for the first 10 patients enrolled on monotherapy to closely monitor the coagulation profile, gain experience and collect safety data during the first full cycle of therapy (21 days) and at least 30 days of post-dosing follow-up Platelet count and coagulation parameters are obtained every day in the inpatient setting. […] Treatment may continue in either the inpatient and/or outpatient setting for subsequent patients enrolled on study. Platelet count and coagulation are monitored at least 3 times/week in the outpatient setting and daily in the inpatient setting.
# Each cycle of monotherapy is 21 days in length. […] Each cycle of combination therapy is 28 days in length. […] Patients who experience a DLT during cycle 1 of monotherapy or cycle 1 of combination therapy are discontinued.
# On Day 1 of each cycle (i.e., Monday) the dose consists of an accelerated rate of infusion of 25% of the total dose volume over 1 hour with the remaining 75% of the dose volume infused over 23 hours. Subsequent daily doses (Days 2 through 18) are infused uniformly over 24 hours (no accelerated rate in the first hour). […] The principal investigator will consult with the Medical Monitor and the Chair of the DSMB to determine the appropriate dose level for each patient.
# [5] = combination with gemcitabine, Dose level 1 (50 mg/kg)
substance,measurement,setting,value
coenzyme Q10,survival,"[1]; coenzyme Q10 75 mg/kg/day continuous infusion + chemotherapy (cytarabine + daunorubicin) vs other groups incl. chemotherapy alone, p<0.00001",significant increase in survival
same,survival,"[1]; coenzyme Q10 alone (4%, 75 mg/kg once/day by continuous infusion) vs chemotherapy alone",relatively similar survival compared to chemotherapy alone
same,Tmax and Cmax,[2]; human,generally associated with the end of the infusion
same,AUC0-168 (estimated weekly),"[2]; human, 176 mg/kg","68,787 μg*hr/mL"
same,Cmax (estimated weekly),"[2]; human, 176 mg/kg","1,558 μg/mL"
same,AUC0-168 (estimated weekly),"[2]; human, 235 mg/kg","74,640 μg*hr/mL"
same,Cmax (estimated weekly),"[2]; human, 235 mg/kg","1,592 μg/mL"
same,AUC0-168 (estimated weekly),"[2]; human, 313 mg/kg","125,953 μg*hr/mL"
same,Cmax (estimated weekly),"[2]; human, 313 mg/kg","2,198 μg/mL"
same,t1/2,"[2]; human, iv",2.18 to 18.0 h
same,accumulation with increasing duration of dosing,[2],no apparent accumulation
same,dose-proportionality,[2]; 22.5 mg/kg,dose-proportionality appeared linear
same,safety issues,"[3]; combination with 5-Fluorouracil, Dose level 1 (50 mg/kg)",No 5FU-related issued
same,dose level evaluation,"[3]; combination with 5-Fluorouracil, Dose level 2 (66 mg/kg)",Dose level cleared
same,safety issues,"[3]; combination with docetaxel, Dose level 1 (50 mg/kg)",No docetaxel-related issued
same,issues or DLTs,"[3]; combination with docetaxel, Dose level 2 (66 mg/kg)",No issues or DLTs
same,issues or DLTs,"[3]; combination with docetaxel, Dose level 3 (kg mg/kg), evaluation ongoing",No issues or DLTs
same,dose-limiting toxicity (DLT),[3]; [5],no DLT
same,thrombocytopenia (gemcitabine-related adverse event),[3]; [5],Mild to moderate thrombocytopenia
same,bleeding events,[3]; continuous infusion protocol,No bleeding events were reported
same,coagulation abnormalities,[3]; continuous infusion protocol with aggressive pre-loading or treatment with Vitamin K,minimal coagulation abnormalities
same,overall safety,"[3]; current dose levels, continuous infusion",safe at the current levels
same,dose-limiting toxicity (DLT),"[3]; monotherapy Dose Level 1 (66 mg/kg), 9 subjects, grade 3 GGT",1 DLT
same,dose-limiting toxicity (DLT),"[3]; monotherapy Dose Level 2 (88 mg/kg), 4 subjects",0 DLT
same,dose-limiting toxicity (DLT),"[3]; monotherapy Dose Level 3 (110 mg/kg), 4 subjects, evaluation ongoing",0 DLT
same,safety and tolerability,"[3]; monotherapy and combination therapy, initial results",safe and well tolerated
same,triglycerides,[3]; no clinical significance,Transient elevation of triglycerides
same,adverse events with increased infusion duration,"[3]; vs four hour infusion at higher rate, expected at the end of the ongoing study",decrease adverse events
same,increase in the intratumor concentration of Coenzyme Q11,"[4]; Patient 1, gastric adenocarcinoma, dose level 1 (66 mg/kg week)",15 fold
same,pharmacokinetics,[4]; initial tested doses,linear distribution
same,outcomes by standard criteria,"AML or ALL; e.g., decreased tumor burden",clinically relevant outcomes
same,adverse events with increased infusion duration,AML or ALL; vs four hour infusion at higher rate,decrease adverse events
